Tests used:
[1] = Maximum solubility of GHB as a function of pH of the aqueous medium; assay type: physicochemical
Protocol: It will be understood that the maximum solubility of GHB is affected by the pH of the aqueous medium. For example, at about pH 4, the maximum amount of Na⋅GHB that can be dissolved is about 450 mg/mL.

[2] = 2.25 g and 4.45 g doses, relative to IV administration; cited from earlier work
[3] = generally considered; Yu et al.; cited from earlier work

Structure (SMILES) | maximum amount that can be dissolved ([1]; at about pH 4, aqueous medium) | absolute bioavailability [2] [%] | solubility class [3] | minimal pH that will dissolve 750 mg/mL GHB ([1]; 750 mg/mL)
O=C([O-])CCCO.[Na+] [sodium oxybate, sodium gamma-hydroxybutyrate] | about 450 mg/mL | 88 | high solubility | –
O=C(O)CCCO [GHB, gamma-hydroxybutyrate] | – | – | – | ~6.8
